This note sets out measurements from a melting point compilation (Tetko et al.; mined from patent text by program, amines drawn as free bases though some values may be those of a salt).

The term melting point denotes the temperature of the solid-liquid transition.

Some results are limits rather than exact numbers.

`CC(C)(C)OC(=O)COc1ccc2c3c(ccc2c1)OC(=O)CC3` came in with a melting point of 95 to 96 °C.
The figure for `O=C(NCCOc1ncc(C(F)(F)F)cc1Cl)c1cc([N+](=O)[O-])ccc1Cl` is 126 to 127 °C.
The figure for `CC(=O)Nc1ccc(C(=O)O)c(OC(C)=O)c1` is 191 to 193 °C; for `CS(=O)(=O)Nc1ccc2c(c1)C(=O)CC1(CCN(CCc3ccc(N)c(N)c3)CC1)O2` it is 109 to 112 °C; for `Cc1cc(Cc2ccccc2)c(NS(=O)(=O)Cc2ccccc2)c(=O)n1CC(=O)O` it is greater than 200 °C.
The figure for `CCCc1cc(F)c2oc(Cc3ccc(OC)cc3)c(C)c2c1OC(=O)OCC` is 85 to 88 °C; for `COc1cc(OC)nc(Oc2ccccc2C=NO)n1` it is 125 to 128 °C; for `COc1cc(C(C)C)ccc1C1COc2c(C)c(C)c(N)c(C)c21` (stereo not given) it is 120 to 121 °C.
`C1=C(c2ccc3ccccc3c2)CCC2(C1)CCNCC2` registered a melting point of 137 to 141 °C.
In the case of `O=C1CCC(c2ccc3c(c2)NC(=O)CO3)=NN1` it was 274 to 275 °C; in that of `CCOc1cc([C@@H](CCN(O)C=O)N2C(=O)c3cccc(NC(C)=O)c3C2=O)ccc1OC`, 96 to 98 °C; in that of `CCOC(=O)C=Cc1cc(OC)ccc1-c1ccc(-c2ccc(OC)c(Cl)c2)c(C=O)c1`, 150 to 152 °C.
With `Clc1nc2ccccc2c2[nH]cnc12`, the melting point lay in the range of 257 to 258 °C.
The figure for `Cc1ccc(N2CCN(CCC3CN(C)C(=O)O3)CC2)cc1C` (stereo not given) is 96 to 97 °C; for `COC(=O)C(Sc1nnnn1-c1ccccc1)N1C(=O)c2ccccc2S1(=O)=O` (stereo not given) it is 160 to 162 °C.
In the case of `CCCc1c(/C=C/c2cc(OC)cc(OC)c2)nc2ccc(C(=O)O)cn2c1=O` it was 268 to 270 °C; in that of `CCCOc1ccccc1-c1ccc(C#N)c(=S)[nH]1`, 127 to 128 °C.
In the case of `COc1ccc(C)cc1NC(=O)Nc1ccc(N2CCN(C(=O)Nc3ccc(CO)cc3C)CC2)cc1` it was 138 to 141 °C.
`C[C@H]1[C@H](O[Si](C)(C)C(C)(C)C)[C@H](O)C(S(=O)(=O)c2ccccc2)=C[C@H](C)[C@H]1O[Si](C)(C)C(C)(C)C` gave a melting point of 81 to 83 °C.
For `COc1cc2c(Nc3ccc4c(c3)NCC4)c(C#N)cnc2cc1OCCCc1ccncc1`, the melting point is 100 to 105 °C.
The compound `O=C1Nc2cc(C(F)(F)F)ccc2C1(O)c1cc(Cl)ccc1O` (stereo not given) returned a melting point of 198 to 200 °C.
In the case of `CC(C)(C)[PH](=O)Cc1ccccc1` (stereo not given) it was 80 to 82 °C.
With `COc1ccc(/C(=C/C=C/C(=O)O)C(C)C)cc1`, the melting point was in the range of 132 to 133 °C.
In turn, `Clc1ccc(-c2ccc(Br)cc2)cc1` came in with a melting point of 81 to 82 °C.
In the case of `COC(=O)c1cccc(C2C(C#N)=C(N)Oc3c2ccc2cccnc32)c1` (stereo not given) it was 198 to 200 °C; in that of `CCOC(=N)c1sc2cc(Cl)ccc2c1O`, 226 °C; in that of `COc1nc(OC)nc(Oc2cccc3c2C(=S)OC3C)n1` (stereo not given), 177 to 178 °C.
The figure for `N#Cc1ccc2oc(Cc3cc4cc(C#N)ccc4o3)cc2c1` is 173 to 174 °C; for `O=Cc1c(-c2ccccc2F)ccc2c1OCO2` it is 84 to 86 °C.
In the case of `CC1Cc2c(-n3nc(C#N)c(=O)[nH]c3=O)ccc(Cl)c2O1` (stereo not given) it was 244 to 245 °C.
Regarding `COc1cc2nc3n(c(=O)c2cc1OC)CS(=O)(=O)N3`, the melting point was greater than 300 °C.
The figure for `CSc1nn(-c2c(Cl)cc(Cl)cc2Cl)c(N)c1C(N)=O` is 198 to 199 °C; for `Cn1c(=O)cnn(-c2cc(OCC#CBr)c(Cl)cc2F)c1=O` it is 127 to 129 °C.
The figure for `COC(=O)c1ccc(C#CCc2ccc3c(c2)C(C)(C)CCC3(C)C)cc1O` is 75 to 77 °C; for `COc1ccc(C(=O)Nc2ccccc2)c2c1OCC2CC(=O)O` (stereo not given) it is 248 to 251 °C.
In the case of `COC(=O)CCc1cc2c(Cl)c(Cl)ccc2n1S(=O)(=O)c1ccccc1` it was 142 °C; in that of `O=P(Cc1ccccc1O)(c1ccccc1)c1ccccc1`, 179 °C.
`CCc1cccc(C)c1NC(=O)CCBr` came in with a melting point of 149 to 150 °C.
In the case of `CN1C(=O)c2ccccc2CC1c1ccc(C(C)(C)C)cc1` (stereo not given) it was 116 to 117 °C; in that of `COC(=O)CCCOc1ccc2c(c1OC)N=C(C=C(O)c1cccnc1)N1CCN=C21`, 199 to 200 °C.
The figure for `Cc1cccc(C(=O)c2[nH]c3ccc(Cl)cc3c2CC(=O)O)c1` is 173 to 174 °C.
The figure for `COc1ccc(C(=O)OC2(c3nc4ccccc4s3)C=CC(=O)C=C2)cc1` is 137 °C.
Take `O=C(NCc1ccc(F)cc1)c1ccnc(N2CCN(Cc3ccc(F)cc3F)C2=O)c1`: the melting point is 171 to 173 °C.
The figure for `Clc1ccc(-c2nc(Cl)c3c(n2)CCCC3)cc1` is 121 °C; for `CCOc1ccc(C=CC(=O)c2c(O)cc(OC)cc2OC)cc1` it is 136 °C; for `CC(C)c1cc(NS(=O)(=O)c2cc(C3(O)CCC(=O)N3C)ccc2Cl)cc(C(C)C)c1O` (stereo not given) it is 198 to 200 °C.
As for `CN(C)C=C(C(=O)c1ccccc1)c1ccccc1`, the melting point lay in the range of 128 to 133 °C.
In the case of `CC(C)(O)c1ccc(CC(=O)Nc2cccnc2Oc2cccnc2)cc1` it was 122 to 124 °C.
The figure for `Cc1ccc(C(=O)OC2CCN(Cc3cccc([N+](=O)[O-])c3)CC2)cc1` is 90 to 93 °C.
In the case of `C#CC1(OC(=O)CC)C(COC(=O)c2ccc(Cl)cc2)OC(n2ccc(=O)[nH]c2=O)C1OC(=O)CC` (stereo not given) it was 208 to 210 °C; in that of `O=C(COCCCl)Nc1ccc([N+](=O)[O-])cc1`, 101 to 102 °C; in that of `CCC1c2cccn2-c2cc(Cl)ccc2N1S(=O)(=O)c1ccc(O)cc1` (stereo not given), 192 to 194 °C.
`O=C(O)c1ccccc1OCCN1CCC(c2cn(Cc3ccc(Cl)s3)c3ccccc23)CC1` came in with a melting point of 178 to 179 °C.
The figure for `COc1cc2c(cc1OC)CN(CC(O)c1ccc(NC(=O)c3cccc4c(=O)c5cccc(OC)c5[nH]c34)cc1)CC2` (stereo not given) is 160 to 165 °C.
In the case of `OCC1CCc2ncsc2C1` (stereo not given) it was 176 to 182 °C; in that of `COC(=O)c1sccc1S(=O)(=O)NC(=O)Nc1nc(C)cc(OC)n1`, 165 to 173 °C; in that of `NC(=O)c1nnsc1Nc1ccccc1`, 195 to 197 °C.
The figure for `CCCCCCCCCCCCNC(=O)c1cc(Br)c(OCCn2ccnn2)c(-c2cccc(C(F)(F)F)c2)c1` is 70.5 to 72.5 °C; for `CCN(C)c1cc(C)nc(Oc2c(C)cc(C)cc2C)c1C` it is 173 to 174 °C.
For the compound `O=CNc1ccc(S(=O)(=O)C[N+](=O)[O-])cc1`, the melting point fell in the range of 192 to 193 °C.
The figure for `CCOC(=O)c1ccc(C(C(N)=O)C(C)c2cc(N)ccc2N2CCCCC2)cc1` (stereo not given) is 148 to 150 °C; for `N#Cc1ccc(C2(COc3cccc4cc(NS(=O)(=O)C(F)(F)F)ccc34)N=CNO2)cc1` (stereo not given) it is 184 to 185 °C.
In the case of `CCOC(=O)N1CCc2c([nH]c3ccc(Cl)cc23)C1C1(C(N)=O)CCC1` (stereo not given) it was 200 to 220 °C; in that of `CCOC(=O)[C@@H]1C[C@H]1Sc1nc2ccccc2cc1-c1ccccc1` (relative stereo), 94 to 94.5 °C; in that of `CC(C)(C)OC(=O)Nc1ccc(O)c2ccccc12`, 172 to 174 °C.
As for `CCCCNc1nc(C)no1`, the melting point was in the range of 62 to 65 °C.
In the case of `CSc1cc2c([nH]1)CC(C)(C)CC2=O` it was 195 to 196 °C; in that of `Cc1ccsc1C(=O)Nc1ccc(C(=O)N2Cc3ccccc3Cc3ccccc32)cc1`, 201 to 204 °C.
In the case of `CCCCCC(=O)C=Cc1ccc(CC(=O)O)s1` it was 51 °C; in that of `C=C1CCc2c(c3ccccc3n2C)C1=O`, 127 to 129 °C.
In the case of `CCn1cc(C(=O)O)c(=O)c2cc(F)c(N3CCN(c4ncccn4)C(C)C3)c(OC(F)F)c21` (stereo not given) it was 219 to 221 °C.
`CN1Cc2cccnc2N(c2cccc(F)c2)C1=O` registered a melting point of 189 to 192 °C.
In the case of `O=C(CCCCC1(c2ccccc2)CC(O)=C(SCCc2ccccc2)C(=O)O1)NCc1ccccc1` (stereo not given) it was 47 to 49 °C.
As for `COCC(O)COc1ccc2nc(S(N)(=O)=O)sc2c1` (stereo not given), the melting point lay within 153 to 155 °C.
The figure for `CCCCc1nc2ccc(O)cc2c(=O)n1Cc1ccc(-c2ccccc2-c2nnnn2COC)cc1` is 157 to 159 °C; for `NC(=O)c1nccc(Oc2ccc(N)cc2F)c1Cl` it is 217 to 218 °C; for `Cc1csc(N2CCN(Cc3ccc(C(=O)O)cc3)C2=O)n1` it is 222 to 224 °C.
The figure for `CN1C(=O)CC(c2c(-c3ccc[nH]3)[nH]c3ccc(O)cc23)C1=O` (stereo not given) is 148 to 154 °C; for `O=C1C2Cc3c(nc(Br)n3Cc3ccccc3)CN2C(=O)N1c1ccccc1` (stereo not given) it is 267 to 269 °C; for `O=C(O)Cc1ccc(OCCCCc2cc(-c3ccc(C(F)(F)F)cc3)no2)cc1` it is 125 to 126 °C.
In the case of `CC(=O)NC(C)c1ccc(CN2CCN(c3nccs3)CC2)cc1` (stereo not given) it was 136 to 137 °C; in that of `CCCCC(Cc1ccc(OCCNC(=O)c2ccc(-c3ccc(CO)cc3)cc2)cc1)C(=O)O` (stereo not given), 111 to 113 °C.
Regarding `CC(C)NCC(O)c1ccc(N)c(C(F)(F)F)c1` (stereo not given), the melting point fell in the range of 136 to 138 °C.
Compound `CN1CCN(c2c(CO)cnc3c(NC(=O)c4c(Cl)cccc4Cl)cccc23)C1=O` came in with a melting point of 251 to 253 °C.
The compound `CC(C)(C)OC(=O)N1CCc2c(C=O)c3ccccc3n2CC1` came in with a melting point of 167 to 168 °C.
The figure for `N#CC1=C(C2CCCC2)Nc2n[nH]cc2C1c1ccccc1Cl` (stereo not given) is 225 °C; for `COc1ccc(-c2ccc3c(c2)C(C)(C)OC(=O)N3)cc1F` it is 210 to 211 °C; for `COc1cc2c(=O)c(-c3ccc(O)cc3)coc2cc1O` it is 336 to 338 °C.
The figure for `C=C(Cc1ccc(OC)cc1)C(=O)O` is 88 to 91 °C; for `CC(=O)OC1CCN2C(=O)N(c3ccc(C#N)c4ccccc34)C(=O)C12` (stereo not given) it is 105 °C.
